Test results from publication PMC7470111, “Escherichia coli γ-carbonic anhydrase: characterisation and effects of simple aromatic/heterocyclic sulphonamide inhibitors” (Journal of Enzyme Inhibition and Medicinal Chemistry, 2020).

The molecules below were run against T1, EcoCAγ (Escherichia coli, UniProt P0A9W9) (assay: biochemical). Conditions: not given.
T1 construct: gene yrdA; recombinant full-length WP_009008373.1, N-terminal His-tag, 72 extra N-terminal residues versus YrdA
T1 sequence (P0A9W9 1-184): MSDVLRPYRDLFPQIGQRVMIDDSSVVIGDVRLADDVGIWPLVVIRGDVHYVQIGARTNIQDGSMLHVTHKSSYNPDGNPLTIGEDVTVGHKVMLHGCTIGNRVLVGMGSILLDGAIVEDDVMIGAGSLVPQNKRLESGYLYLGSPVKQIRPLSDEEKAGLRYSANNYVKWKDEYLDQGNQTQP
Protocol: The CO2 hydration activity performed by the EcoCAγ was monitored using an Applied Photophysics stopped-flow instrument. […] To determine the kinetic parameters by Lineweaver-Burk plots and the inhibition constants, a concentration of CO2 between 1.7 to 17 mM was used. At least six measurements of the original 5–10% reaction were used to assess the initial velocity for each inhibitor. The uncatalyzed rates were identically determined and detracted from the total observed rates. Stock inhibitor solutions (10–100 mM) were prepared in distilled-deionized water and dilutions up to 0.01 mM were done with the buffer test. Inhibitor and enzyme solutions were preincubated together for 15 min at room temperature prior to assay, in order to allow for the formation of the E-I complex or for the eventual active site mediated hydrolysis of the inhibitor. The inhibition constants were obtained by non-linear least-squares methods using PRISM 6 and the Cheng-Prusoff equation, as reported earlier[12]^,[14]^,[68], and represent the mean from at least three different determinations. h CAI and hCA II were recombinant enzymes obtained in-house. The synthetic E. coli gene encoding for the EcoCAγ (Accession number: WP_009008373.1) was synthesised by the Invitrogen GeneArt (ThermoFisher Scientific), a company specialised in gene synthesis, and cloned into the expression vector pET100D-Topo/γ-CA. Briefly, the gene was designed to produce the recombinant EcoCAγ as fusion proteins with a tag containing nucleotides encoding for six histidines (His-Tag) at the amino terminus of neosynthetized recombinant protein. Competent E. coli BL21 (DE3) codon plus cells (Agilent) were transformed as described by Del Prete et al.. Isopropyl β-D-1-thiogalactopyranoside (IPTG) at the concentration of 1 mM was added to the cellular culture to overexpress the recombinant EcoCAγ. After growth, the cells were harvested and disrupted by sonication. Cellular extract was purified using a nickel affinity column (His-Trap FF), which allows the interaction between the matrix functionalised with Ni^2+ ions and the His-Tag at the N-terminus of the protein. The HisTrap column (1 ml) was equilibrated with 20 ml equilibration buffer (50 mM Tris, 20 mM imidazole and 150 mM sodium chloride, pH 7.5) at 1 ml/min. The supernatant from the cellular lysate was loaded onto the column at 1 ml/min, and eluted from the column by fluxing imidazole (300 mM) at a flow of 0.5 ml/min in a buffer composed of 50 mM Tris and 300 mM sodium chloride, pH 7.5. The recovered EcoCAγ was 90% pure. The protein quantification was carried out by Bradford method (BioRAD).

SMILES	Ki [µM]
Nc1ccc(S(N)(=O)=O)cc1F [compound 7]	0.605
NS(=O)(=O)c1cc(Cl)cc(Cl)c1O [compound 10]	2.58
NS(=O)(=O)c1ccc(CCO)cc1 [compound 17]	1.97
Nc1cc(C(F)(F)F)c(S(N)(=O)=O)cc1S(N)(=O)=O [compound 11]	1.78
Cn1nc(S(N)(=O)=O)sc1=N [compound 14]	0.712
Nc1ccc(S(=O)(=O)NCc2ccc(S(N)(=O)=O)cc2)cc1 [compound 23]	4.04
NS(=O)(=O)c1cccc(S(N)(=O)=O)c1 [compound 3]	0.246
NS(=O)(=O)c1ccc(O)cc1 [compound 15]	1.01
Nc1ccc(S(=O)(=O)Nc2ccc(S(N)(=O)=O)cc2)cc1 [compound 22]	3.5
NS(=O)(=O)c1ccc(C(=O)O)cc1 [compound 18]	2.06
Nc1nnc(S(N)(=O)=O)s1 [compound 13]	0.197
Nc1ccc(S(N)(=O)=O)cc1Br [compound 9]	0.718
Nc1ccc(S(N)(=O)=O)cc1Cl [compound 8]	0.671
Nc1ccc(S(=O)(=O)Nc2nnc(S(N)(=O)=O)s2)cc1 [compound 20]	0.883
Cc1ccc(S(N)(=O)=O)cc1 [compound 4]	0.221
Nc1ccc(S(=O)(=O)NCCc2ccc(S(N)(=O)=O)cc2)cc1 [compound 24]	4.26
NCCc1ccc(S(N)(=O)=O)cc1 [compound 6]	0.622
Nc1cc(Cl)c(S(N)(=O)=O)cc1S(N)(=O)=O [compound 12]	1.95
Nc1nccc(Nc2ccc(S(N)(=O)=O)cc2)n1 [compound 19]	1.89
NS(=O)(=O)c1ccc(CO)cc1 [compound 16]	4.24

Same assay, conditions: inhibitor

SMILES	Ki [µM]
NS(=O)(=O)c1ccc(CCNS(=O)(=O)c2ccc([N+](=O)[O-])cc2CO)cc1 [compound 21]	0.819
Nc1cccc(S(N)(=O)=O)c1 [compound 1]	0.314
